Test results taken from BindingDB's records for PubMed 20126400 (University of Oklahoma, 2010).

Columns and labels:
Test in all cases: Ray2010 Assay 74
[1] = target: 5-hydroxytryptamine receptor 7 (Homo sapiens, UniProt P34969)
Excerpt: (§1) Table S2 shows raw Ki data for the current study combined with data collected from the literature for the ten additional compounds.

D(4) dopamine receptor = target: T1, D(4) dopamine receptor (Homo sapiens, UniProt P21917)
T1 sequence (P21917 whole entry): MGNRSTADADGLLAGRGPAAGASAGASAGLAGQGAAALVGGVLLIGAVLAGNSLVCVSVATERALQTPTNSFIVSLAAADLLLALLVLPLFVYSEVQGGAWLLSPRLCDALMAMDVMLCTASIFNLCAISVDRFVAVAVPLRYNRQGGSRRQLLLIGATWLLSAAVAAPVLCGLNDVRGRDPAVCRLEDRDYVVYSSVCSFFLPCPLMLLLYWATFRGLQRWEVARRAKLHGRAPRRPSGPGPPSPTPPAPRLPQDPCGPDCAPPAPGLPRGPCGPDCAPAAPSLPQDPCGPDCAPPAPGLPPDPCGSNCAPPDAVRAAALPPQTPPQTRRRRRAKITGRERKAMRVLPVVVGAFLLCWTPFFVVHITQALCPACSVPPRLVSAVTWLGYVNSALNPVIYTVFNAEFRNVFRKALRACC
Excerpt: as §1

[2] = target: Beta-2 adrenergic receptor (Homo sapiens, UniProt P07550)
Excerpt: as §1

Histamine H1 receptor = Histamine H1 receptor (Homo sapiens, UniProt P35367)
Excerpt: as §1

[3] = target: Muscarinic acetylcholine receptor M3 (Homo sapiens, UniProt P20309)
Excerpt: as §1

Nischarin = Nischarin (Homo sapiens, UniProt Q9Y2I1)
Excerpt: as §1

[4] = target: Sigma non-opioid intracellular receptor 1 (Homo sapiens, UniProt Q99720)
Excerpt: as §1

[5] = target: T2, Alpha-2C adrenergic receptor (Homo sapiens, UniProt P18825)
T2 sequence (P18825 whole entry): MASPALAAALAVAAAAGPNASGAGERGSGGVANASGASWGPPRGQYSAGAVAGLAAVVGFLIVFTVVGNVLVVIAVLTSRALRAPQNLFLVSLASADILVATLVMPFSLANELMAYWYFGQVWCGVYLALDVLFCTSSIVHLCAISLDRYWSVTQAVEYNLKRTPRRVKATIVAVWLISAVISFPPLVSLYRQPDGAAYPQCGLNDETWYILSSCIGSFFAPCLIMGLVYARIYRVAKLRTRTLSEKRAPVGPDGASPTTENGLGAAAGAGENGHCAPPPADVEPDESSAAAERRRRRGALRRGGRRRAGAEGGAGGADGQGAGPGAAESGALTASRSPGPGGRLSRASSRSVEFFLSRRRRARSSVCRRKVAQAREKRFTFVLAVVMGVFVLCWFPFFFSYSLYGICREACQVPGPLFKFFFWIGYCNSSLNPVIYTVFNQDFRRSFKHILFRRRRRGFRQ
Excerpt: as §1

Vasopressin V1b receptor = target: T3, Vasopressin V1b receptor (Homo sapiens, UniProt P47901)
T3 sequence (P47901 whole entry): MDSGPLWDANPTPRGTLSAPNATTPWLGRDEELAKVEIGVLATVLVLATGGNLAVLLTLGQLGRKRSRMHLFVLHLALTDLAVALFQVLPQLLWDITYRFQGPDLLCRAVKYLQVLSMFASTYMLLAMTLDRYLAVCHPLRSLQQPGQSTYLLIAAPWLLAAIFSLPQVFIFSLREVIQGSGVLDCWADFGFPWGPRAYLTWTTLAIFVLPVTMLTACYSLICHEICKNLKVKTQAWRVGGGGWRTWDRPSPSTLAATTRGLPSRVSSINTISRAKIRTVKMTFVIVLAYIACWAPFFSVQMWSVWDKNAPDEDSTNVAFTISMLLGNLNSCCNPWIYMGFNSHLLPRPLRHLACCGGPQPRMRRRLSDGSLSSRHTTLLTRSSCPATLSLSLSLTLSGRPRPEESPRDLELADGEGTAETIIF
Excerpt: as §1

Histamine H3 receptor = Histamine H3 receptor (Homo sapiens, UniProt Q9Y5N1)
Excerpt: as §1

[6] = target: Sigma intracellular receptor 2 (Homo sapiens, UniProt Q5BJF2)
Excerpt: as §1

[7] = target: T4, Gamma-aminobutyric acid receptor subunit alpha-1/Adenosine receptor A1 (Homo sapiens, UniProt P14867+P30542)
T4 sequence (P30542 whole entry): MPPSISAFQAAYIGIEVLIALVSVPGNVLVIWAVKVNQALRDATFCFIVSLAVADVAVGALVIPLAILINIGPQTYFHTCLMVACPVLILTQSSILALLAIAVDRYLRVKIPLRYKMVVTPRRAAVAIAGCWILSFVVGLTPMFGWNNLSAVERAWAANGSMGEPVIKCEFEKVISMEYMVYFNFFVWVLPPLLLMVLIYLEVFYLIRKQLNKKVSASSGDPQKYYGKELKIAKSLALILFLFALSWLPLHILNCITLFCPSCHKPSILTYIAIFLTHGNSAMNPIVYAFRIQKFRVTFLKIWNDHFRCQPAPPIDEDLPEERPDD
T4 sequence (P14867 whole entry): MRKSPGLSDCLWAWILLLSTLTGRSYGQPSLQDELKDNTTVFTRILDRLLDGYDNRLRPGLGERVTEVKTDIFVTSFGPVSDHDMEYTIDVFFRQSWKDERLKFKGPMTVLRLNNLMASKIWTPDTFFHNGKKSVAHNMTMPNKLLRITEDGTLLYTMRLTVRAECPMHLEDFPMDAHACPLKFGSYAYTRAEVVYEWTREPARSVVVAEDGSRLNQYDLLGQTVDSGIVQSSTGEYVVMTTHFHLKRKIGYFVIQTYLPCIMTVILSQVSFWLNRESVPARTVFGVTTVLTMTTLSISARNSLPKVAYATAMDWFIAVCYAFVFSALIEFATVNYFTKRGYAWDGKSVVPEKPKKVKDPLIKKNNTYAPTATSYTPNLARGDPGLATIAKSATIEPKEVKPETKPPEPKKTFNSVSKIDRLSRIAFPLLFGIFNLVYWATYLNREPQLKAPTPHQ
Excerpt: as §1

Vasopressin V1a receptor = Vasopressin V1a receptor (Homo sapiens, UniProt P37288)
Excerpt: as §1

[8] = target: Voltage-dependent calcium channel subunit alpha-2/delta-1 (Homo sapiens, UniProt P54289)
Excerpt: as §1

Chain of 5-hydroxytryptamine receptor 7 (P34969 whole entry): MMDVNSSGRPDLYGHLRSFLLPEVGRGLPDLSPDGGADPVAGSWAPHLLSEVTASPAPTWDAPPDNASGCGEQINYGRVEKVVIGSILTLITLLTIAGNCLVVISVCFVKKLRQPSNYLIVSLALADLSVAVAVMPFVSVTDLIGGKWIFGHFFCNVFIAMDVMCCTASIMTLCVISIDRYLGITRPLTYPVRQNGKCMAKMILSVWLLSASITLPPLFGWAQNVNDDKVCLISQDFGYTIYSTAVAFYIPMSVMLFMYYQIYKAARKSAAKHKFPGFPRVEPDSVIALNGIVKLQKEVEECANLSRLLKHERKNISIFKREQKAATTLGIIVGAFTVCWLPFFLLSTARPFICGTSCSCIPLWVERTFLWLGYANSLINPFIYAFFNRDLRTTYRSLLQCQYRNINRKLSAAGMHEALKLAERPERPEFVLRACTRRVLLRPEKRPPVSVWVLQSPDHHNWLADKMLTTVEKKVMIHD
Chain of Histamine H1 receptor (P35367 whole entry): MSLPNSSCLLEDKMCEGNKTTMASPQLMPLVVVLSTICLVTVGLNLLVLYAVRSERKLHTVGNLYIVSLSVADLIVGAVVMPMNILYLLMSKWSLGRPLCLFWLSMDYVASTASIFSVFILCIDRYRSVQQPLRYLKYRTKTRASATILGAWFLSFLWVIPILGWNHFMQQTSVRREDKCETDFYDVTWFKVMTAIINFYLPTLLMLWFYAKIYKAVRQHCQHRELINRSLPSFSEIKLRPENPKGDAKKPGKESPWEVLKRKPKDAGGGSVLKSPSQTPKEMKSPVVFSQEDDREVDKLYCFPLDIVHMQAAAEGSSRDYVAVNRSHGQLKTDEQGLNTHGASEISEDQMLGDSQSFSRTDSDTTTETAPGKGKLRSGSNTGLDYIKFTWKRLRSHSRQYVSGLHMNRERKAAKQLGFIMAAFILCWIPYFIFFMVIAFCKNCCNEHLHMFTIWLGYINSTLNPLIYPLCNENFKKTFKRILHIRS
Chain of Vasopressin V1a receptor (P37288 whole entry): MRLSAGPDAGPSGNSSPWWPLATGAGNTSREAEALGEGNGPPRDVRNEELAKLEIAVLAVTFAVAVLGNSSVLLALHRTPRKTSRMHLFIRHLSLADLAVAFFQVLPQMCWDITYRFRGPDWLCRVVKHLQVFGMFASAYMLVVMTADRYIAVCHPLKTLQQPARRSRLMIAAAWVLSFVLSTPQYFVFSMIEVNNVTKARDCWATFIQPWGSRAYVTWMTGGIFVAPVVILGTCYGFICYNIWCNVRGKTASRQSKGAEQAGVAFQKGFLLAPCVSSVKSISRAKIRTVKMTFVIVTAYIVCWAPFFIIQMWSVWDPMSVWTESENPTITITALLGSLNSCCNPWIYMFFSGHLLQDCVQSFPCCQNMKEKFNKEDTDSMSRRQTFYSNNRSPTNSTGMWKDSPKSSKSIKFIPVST
Chain of Histamine H3 receptor (Q9Y5N1 whole entry): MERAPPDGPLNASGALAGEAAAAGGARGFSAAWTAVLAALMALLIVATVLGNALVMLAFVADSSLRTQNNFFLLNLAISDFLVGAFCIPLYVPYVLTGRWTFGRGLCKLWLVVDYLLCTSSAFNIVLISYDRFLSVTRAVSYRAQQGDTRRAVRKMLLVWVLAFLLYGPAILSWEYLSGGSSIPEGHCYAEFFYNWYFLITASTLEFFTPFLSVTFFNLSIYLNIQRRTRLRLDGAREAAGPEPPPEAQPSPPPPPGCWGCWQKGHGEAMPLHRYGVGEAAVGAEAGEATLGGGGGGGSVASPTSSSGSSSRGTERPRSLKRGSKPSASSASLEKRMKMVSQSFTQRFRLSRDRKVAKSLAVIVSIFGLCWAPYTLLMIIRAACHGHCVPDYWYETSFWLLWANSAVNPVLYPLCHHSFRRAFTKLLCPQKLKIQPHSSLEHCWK
Chain of Muscarinic acetylcholine receptor M3 (P20309 whole entry): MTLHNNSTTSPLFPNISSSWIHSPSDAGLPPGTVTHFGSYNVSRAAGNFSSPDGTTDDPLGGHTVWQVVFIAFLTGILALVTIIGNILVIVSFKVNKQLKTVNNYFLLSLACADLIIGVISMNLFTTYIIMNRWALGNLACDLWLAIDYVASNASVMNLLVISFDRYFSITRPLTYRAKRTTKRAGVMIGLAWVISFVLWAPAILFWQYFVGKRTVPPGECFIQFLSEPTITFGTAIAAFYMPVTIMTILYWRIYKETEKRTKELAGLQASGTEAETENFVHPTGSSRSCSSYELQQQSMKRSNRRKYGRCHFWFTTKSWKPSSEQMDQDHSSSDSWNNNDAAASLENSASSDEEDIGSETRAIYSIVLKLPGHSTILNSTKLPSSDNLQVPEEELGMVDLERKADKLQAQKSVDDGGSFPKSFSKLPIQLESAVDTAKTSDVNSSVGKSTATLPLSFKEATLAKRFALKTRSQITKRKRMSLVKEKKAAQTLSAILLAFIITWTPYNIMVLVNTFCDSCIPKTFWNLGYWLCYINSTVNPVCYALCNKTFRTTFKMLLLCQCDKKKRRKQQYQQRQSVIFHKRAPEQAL
Chain of Sigma non-opioid intracellular receptor 1 (Q99720 whole entry): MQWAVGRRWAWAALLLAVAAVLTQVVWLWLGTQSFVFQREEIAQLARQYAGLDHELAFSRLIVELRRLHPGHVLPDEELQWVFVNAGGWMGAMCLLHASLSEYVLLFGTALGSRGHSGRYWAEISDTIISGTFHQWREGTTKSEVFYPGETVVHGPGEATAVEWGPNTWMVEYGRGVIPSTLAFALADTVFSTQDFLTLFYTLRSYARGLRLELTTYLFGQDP
Chain of Sigma intracellular receptor 2 (Q5BJF2 whole entry): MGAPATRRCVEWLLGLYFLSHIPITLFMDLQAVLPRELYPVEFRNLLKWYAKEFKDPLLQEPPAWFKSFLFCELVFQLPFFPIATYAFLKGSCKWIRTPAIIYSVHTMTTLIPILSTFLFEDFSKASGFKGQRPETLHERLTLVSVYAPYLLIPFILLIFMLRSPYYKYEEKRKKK
Chain of Voltage-dependent calcium channel subunit alpha-2/delta-1 (P54289 25-956 limits assumed): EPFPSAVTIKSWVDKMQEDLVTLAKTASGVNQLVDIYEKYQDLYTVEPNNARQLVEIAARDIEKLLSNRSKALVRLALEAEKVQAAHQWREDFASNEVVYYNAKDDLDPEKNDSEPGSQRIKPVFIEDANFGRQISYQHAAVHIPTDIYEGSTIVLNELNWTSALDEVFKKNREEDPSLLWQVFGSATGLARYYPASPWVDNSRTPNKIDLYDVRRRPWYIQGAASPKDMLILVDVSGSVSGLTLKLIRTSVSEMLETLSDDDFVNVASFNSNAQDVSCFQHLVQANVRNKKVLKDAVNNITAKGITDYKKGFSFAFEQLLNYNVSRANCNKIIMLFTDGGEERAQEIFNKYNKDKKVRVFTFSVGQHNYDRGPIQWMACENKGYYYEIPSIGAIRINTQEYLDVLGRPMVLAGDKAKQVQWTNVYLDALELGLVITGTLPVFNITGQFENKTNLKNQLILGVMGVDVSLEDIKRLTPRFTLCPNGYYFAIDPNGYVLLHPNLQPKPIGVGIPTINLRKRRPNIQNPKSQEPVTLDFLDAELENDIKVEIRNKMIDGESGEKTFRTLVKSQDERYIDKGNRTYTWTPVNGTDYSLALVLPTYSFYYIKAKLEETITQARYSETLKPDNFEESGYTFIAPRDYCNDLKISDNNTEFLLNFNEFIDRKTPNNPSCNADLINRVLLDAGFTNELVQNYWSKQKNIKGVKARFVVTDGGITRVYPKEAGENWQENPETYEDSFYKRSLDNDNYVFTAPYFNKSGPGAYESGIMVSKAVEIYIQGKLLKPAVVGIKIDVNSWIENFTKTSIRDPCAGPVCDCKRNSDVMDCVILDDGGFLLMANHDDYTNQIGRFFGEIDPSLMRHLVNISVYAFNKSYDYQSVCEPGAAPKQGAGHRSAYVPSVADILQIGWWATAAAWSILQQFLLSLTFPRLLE
Chain of Voltage-dependent calcium channel subunit alpha-2/delta-1 (P54289 957-1103 limits assumed): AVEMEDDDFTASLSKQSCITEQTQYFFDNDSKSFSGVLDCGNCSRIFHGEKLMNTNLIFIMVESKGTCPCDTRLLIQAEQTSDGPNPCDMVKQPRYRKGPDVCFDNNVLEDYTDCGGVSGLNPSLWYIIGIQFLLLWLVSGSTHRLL
Chain of Beta-2 adrenergic receptor (P07550 whole entry): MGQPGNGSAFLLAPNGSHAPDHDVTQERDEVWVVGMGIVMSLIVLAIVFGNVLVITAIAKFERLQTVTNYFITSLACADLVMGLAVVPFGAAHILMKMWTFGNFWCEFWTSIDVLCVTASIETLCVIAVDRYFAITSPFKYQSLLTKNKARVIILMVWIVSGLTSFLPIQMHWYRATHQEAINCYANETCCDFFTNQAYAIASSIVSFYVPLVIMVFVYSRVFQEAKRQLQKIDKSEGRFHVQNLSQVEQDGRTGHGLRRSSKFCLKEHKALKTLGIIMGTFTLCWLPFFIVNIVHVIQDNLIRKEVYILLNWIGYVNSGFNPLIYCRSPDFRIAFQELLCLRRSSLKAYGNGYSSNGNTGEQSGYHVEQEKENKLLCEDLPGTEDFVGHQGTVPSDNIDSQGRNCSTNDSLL

Compound | Ki [1] | Ki (D(4) dopamine receptor) | Ki [2] | Ki (Histamine H1 receptor) | Ki [3] | Ki (Nischarin) | Ki [4] | Ki [5] | Ki (Vasopressin V1b receptor) | Ki (Histamine H3 receptor) | Ki [6] | Ki [7] | Ki (Vasopressin V1a receptor) | Ki [8]
COC(=O)[C@@H]1C[C@H](OC(C)=O)C(=O)[C@H]2[C@@]1(C)CC[C@H]1C(=O)O[C@H](c3ccoc3)C[C@]21C [2S,4aR,6a(R,7R,9S,10aS,10bR)-9-(acetyloxy)-2-(furan-3-yl)dodecahydro-6a,10b-dimethyl-4,10-dioxo-2H-naphtho[2,1-c]pyran-7-carboxylic acid methyl ester] | > 10 µM | > 10 µM | > 10 µM | > 10 µM | > 10 µM |  |  |  |  |  |  |  |  | 
CCSc1cc(OC)c(CC(N)CC)cc1OC (stereo unspecified) [1-(4-Ethylsulfanyl-2,5-dimethoxy-benzyl)-propylamine] | 3.83 µM | > 10 µM |  | > 10 µM | > 10 µM | 0.947 µM | 0.515 µM | > 10 µM | > 10 µM | > 10 µM | > 10 µM | > 10 µM | > 10 µM | > 10 µM
COc1cc(CC(C)N)c(OC)cc1C (stereo not drawn) [(+/-)2-(2,5-Dimethoxy-4-methyl-phenyl)-1-methyl-ethylamine] | 1.59 µM | > 10 µM |  | > 10 µM |  | > 10 µM | > 10 µM | 0.921 µM |  | > 10 µM | > 10 µM |  |  | 
CCSc1cc(OC)c(CC(C)N)cc1OC (stereo unspecified) [2-(4-Ethylsulfanyl-2,5-dimethoxy-phenyl)-1-methyl-ethylamine] | 1.32 µM | > 10 µM |  | > 10 µM | 1.91 µM | 0.32 µM | 0.239 µM | 1.39 µM | > 10 µM | > 10 µM | > 10 µM | > 10 µM | > 10 µM | > 10 µM
COc1cc(CC(C)N)c(OC)cc1Br (stereo not drawn) [2-(4-Bromo-2,5-dimethoxy-phenyl)-1-methyl-ethylamine((-)-DOB)] | 0.506 µM | > 10 µM |  | 9.12 µM | 1.15 µM |  | 2.19 µM | 0.594 µM | > 10 µM |  | > 10 µM | > 10 µM | > 10 µM | > 10 µM
CCN(CC)C(=O)[C@@H]1C=C2c3cccc4[nH]cc(c34)C[C@H]2N(C)C1 [[N-methyl-3H]LSD] |  | 0.158 µM |  |  |  |  |  |  | > 10 µM |  |  |  | > 10 µM | 
COc1ccc2[nH]c(C)c(CCN(C)C)c2c1 [[2-(5-Methoxy-2-methyl-1H-indol-3-yl)-ethyl]-dimethyl-amine (C2H2O)] |  | > 10 µM |  | > 10 µM | > 10 µM |  |  |  | > 10 µM | > 10 µM |  |  | > 10 µM | 
COc1cc(CCN)c(OC)cc1Br | 0.209 µM | > 10 µM |  | > 10 µM | 0.822 µM | 2.16 µM | > 10 µM | 0.103 µM | > 10 µM | > 10 µM | > 10 µM | > 10 µM | > 10 µM | 
CCSc1cc(OC)c(CCN)cc1OC [2C-T-2] |  | > 10 µM |  | > 10 µM | 0.692 µM | 2.08 µM | 3.87 µM | 0.166 µM | > 10 µM | > 10 µM | > 10 µM | > 10 µM | > 10 µM | > 10 µM
C[C@@H]1C[C@@H](C)N1C(=O)C1C=C2c3cccc4[nH]cc(c34)C[C@H]2N(C)C1 (stereo partly specified) [rr-2b] |  |  |  | 1.45 µM |  |  |  |  | > 10 µM |  |  |  | > 10 µM | 
